For one compound, clearance results are on record in patent EP4796540A2, “N-SULFONAMIDE NITROGEN-CONTAINING FUSED HETEROCYCLIC COMPOUND, AND APPLICATION THEREOF” (priority 2023, dated 2025).

A short description of data set [1]: In vivo pharmacokinetic study in mice. Particulars: mouse, plasma; CD-1 mice (male), IV 1 mg/kg; read-out: Clint. As to the method:
1. Experimental purpose: To test the pharmacokinetics of compounds in CD-1 mice. 2. Experimental instrument and materials: Animals: CD-1 mice (male) Instrument: Intravenous injection: 40% HP-β-CD in water; intragastric administration: 0.2% HPC + 0.5% Tween80 in water. 6 male mice. Fasting treatment was performed in the evening before the administration, with free access to water. During the experiment, the mice were allowed to eat and drink freely, and administered by intravenous injection or gavage. After administration, the animal status was observed, and abnormal behaviors were recorded. Blood was collected from the orbit at 0.0833, 0.25, 1, 2, 4, 8, and 24 hours after intravenous injection, and at 0.25, 0.5, 1, 2, 4, 6, 8, and 24 hours after intragastric administration. 20 µL of plasma sample was taken and added with 250 µL of acetonitrile (containing dexamethasone as an internal standard) to precipitate proteins. The mixture was centrifuged at 4°C and 4000 rpm for 20 minutes, and 180 µL of the supernatant was taken and mixed with 180 µL of an aqueous solution containing 0.1% formic acid in a 96-well plate. […] Unknown samples were calculated by the standard curve. Pharmacokinetic parameters were calculated by the non-compartmental analysis model of WinNonlin 8.2 software and were presented in a report, including Clint, Cmax, AUC, etc. […]

A short description of data set [2]: In vivo pharmacokinetic study in rats. Particulars: rat, plasma; SD rats (male), IV 1 mg/kg; read-out: Clint. As to the method:
1. Experimental purpose: To test the pharmacokinetics of compounds in SD rats. 2. Experimental instrument and materials: Animal: SD rats (male) Instrument: Intravenous injection: 40% HP-β-CD in water; intragastric administration: 0.2% HPC + 0.5% Tween80 in water. 6 male rats. Fasting treatment was performed in the evening before the administration, with free access to water. During the experiment, the rats were allowed to eat and drink freely, and administered by intravenous injection or gavage. After administration, the animal status was observed, and abnormal behaviors were recorded. Blood was collected via jugular vein puncture at 0.0833, 0.25, 1, 2, 4, 8, and 24 hours after intravenous injection; Blood was collected via jugular vein puncture at 0.25, 0.5, 1, 2, 4, 6, 8, and 24 hours after intragastric administration. 50 µL of plasma sample was taken and added with 500 µL of acetonitrile (containing dexamethasone as an internal standard) to precipitate proteins. The mixture was centrifuged at 4°C and 4000 rpm for 20 minutes, and 300 µL of the supernatant was taken and mixed with 300 µL of Watsons aqueous solution in a 96-well plate. […] Unknown samples were calculated by the standard curve. Pharmacokinetic parameters were calculated by the non-compartmental analysis model of WinNonlin 8.2 software and were presented in a report, including Clint, Cmax, AUC, etc. […]

For the compound `[2H]C([2H])([2H])Oc1nc(C(=O)NS(C)(=O)=O)ccc1NCC#Cc1cc2c(N[C@@H]3CCN(C)C[C@@H]3F)cccn2c1CC(F)(F)F` [Cpd-2, 5-((3-(8-(((3S,4R)-3-Fluoro-1-methylpiperidin-4-yl)amino)-3-(2,2,2-trifluoroethyl)indolizin-2-yl)prop-2-yn-1-yl)amino)-6-(methoxy-d3)-N-(methylsulfonyl)picolinamide], the clearance in data set [1] came out at 15 mL/min/kg; in data set [2] it was 3.3 mL/min/kg.
